The values that follow come from patent publication US20260042764A1, “COMPOSITIONS AND METHODS FOR INHIBITION OF KRAS” (TheRas, Inc., priority 2022, published 2026).

One test has as its system GP2d cells (KRAS G12D). The test is described as follows: Cell-based pERK HTRF assay in GP2d cell (Biological Example 2). As to conditions: GP2d (KRAS G12D) cells. In short, it runs like this: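 GP2d (KRAS G12D) cells were plated in DMEM/10% FBS and treated the next day for 60 min with compounds. Dosing used 9-point half-log series starting at 1 μM or 100 nM in 0.25% DMSO. Lysates were read by HTRF pERK (d2/Eu cryptate antibodies) after 4–24 h at room temperature, with excitation at 320 nm and emission at 615 nm.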
Background: In TR-FRET formats the signal depends on donor and acceptor labels being close together.

Test [1] addresses T1, Avi-KRAS G12D (2-169) GTP/RAF1 RBD-3xFLAG (51-131) (Homo sapiens, UniProt P01116, G12D).
T1 construct: Avi-KRAS G12D (2-169)
The test is described as follows: Raf1-KRAS G12D-GTP disruption HTRF assay (Biological Example 3). As to conditions: KRAS G12D, GTP-loaded. It is filed as binding. In short, it runs like this: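 50 nM Avi-KRAS (2-169) GTP/RAF1 RBD complex; 75 nM RBD-Avi; pH 7.5 Tris buffer, 10% DMSO; cpd 30 μM top, 3x, 10 pts; 1 h RT, 700 rpm; HTRF, % of DMSO.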

SMILES strings stand for the structures.

T1 sequence (P01116 2-169 isoform P01116-2 G12D): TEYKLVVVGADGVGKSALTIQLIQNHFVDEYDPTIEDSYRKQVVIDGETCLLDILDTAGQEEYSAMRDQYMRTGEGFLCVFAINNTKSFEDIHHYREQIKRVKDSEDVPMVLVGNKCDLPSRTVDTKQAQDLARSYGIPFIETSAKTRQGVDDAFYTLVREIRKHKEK

Turning to `CCN(c1nc(OC[C@@]23CCCN2C[C@H](F)C3)nc2c(F)c(-c3ccc(F)c4sc(N)c(C#N)c34)c(C(F)(F)F)cc12)[C@H]1CCN(C(=O)OC)C1` [Compound 394], the IC50 (as a rule, the concentration that inhibits the measured activity by half) was less than 100 nM in the test with GP2d cells (KRAS G12D) (GP2d); less than 100 nM in the test on GP2d cells (KRAS G12D) (GP2d, pERK HTRF); 100 to 1000 nM in test [1].

The compound `CCN(c1nc(OC[C@@]23CCCN2C[C@H](F)C3)nc2c(F)c(-c3ccc(F)c4sc(N)c(C#N)c34)c(Cl)cc12)[C@@H]1CCN(C(C)=O)[C@@H]1C` [Compound 323] showed a half-inhibitory concentration (IC50) in the test with GP2d cells (KRAS G12D) (GP2d, pERK HTRF) of less than 100 nM.

`CN(C)C(=O)c1cc2n(n1)CCN(c1nc(OC[C@@]34CCCN3C[C@H](F)C4)nc3c(F)c(-c4ccc(F)c5sc(N)c(C#N)c45)c(C(F)(F)F)cc13)C2` [Compound 355]: the IC50 with GP2d cells (KRAS G12D) (GP2d) is less than 100 nM; with GP2d cells (KRAS G12D) (GP2d, pERK HTRF) it was less than 100 nM; in test [1], 100 to 1000 nM.

For the compound `[2H]C1([2H])O[C@@H]2C[C@H]1N(c1nc(OC[C@@]34CCCN3C[C@H](F)C4)nc3c(F)c(-c4ccc(F)c5sc(N)c(C#N)c45)c(C(F)(F)F)cc13)C2` [Compound 371], the IC50 was less than 100 nM in the test on GP2d cells (KRAS G12D) (GP2d); less than 100 nM in the test with GP2d cells (KRAS G12D) (GP2d, pERK HTRF); 100 to 1000 nM in test [1].

For the compound `CC(=O)N1C[C@H](N(C)c2nc(OC[C@@]34CCCN3C[C@H](F)C4)nc3c(F)c(-c4ccc(F)c5sc(N)c(C#N)c45)c(C(F)(F)F)cc23)C[C@@H]1C` [Compound 298], the IC50 in the test with GP2d cells (KRAS G12D) (GP2d) was less than 100 nM; in the test with GP2d cells (KRAS G12D) (GP2d, pERK HTRF), less than 100 nM; in test [1], 1000 to 10000 nM.

On to `Cc1c(C(=O)N2CCOCC2)nn2c1CN(c1nc(OCC34CCCN3CC(F)C4)nc3c(F)c(-c4ccc(F)c5sc(N)c(C#N)c45)c(C(F)(F)F)cc13)CC2` (centres unmarked) [Compound 741], for which the IC50 in the test with GP2d cells (KRAS G12D) (GP2d) was less than 100 nM; in the test with GP2d cells (KRAS G12D) (GP2d, pERK HTRF, class symbols), less than 100 nM; in test [1], 100 to 1000 nM.

For the compound `N#Cc1c(N)sc2c(F)ccc(-c3c(C(F)(F)F)cc4c(N5CC6CC5CO6)nc(OC[C@@]56CCCN5C[C@H](F)C6)nc4c3F)c12` (some centres unmarked) [Compound 147], in the test with GP2d cells (KRAS G12D) (GP2d, pERK HTRF), the IC50 is less than 100 nM.

`CCN(c1nc(OC[C@@]23CCCN2C[C@H](F)C3)nc2c(F)c(-c3ccc(F)c4sc(N)c(C#N)c34)c(C(F)(F)F)cc12)[C@H]1CCN(C(=O)C2CN(C(C)=O)C2)C1` (atropisomer, axis not shown) [Compound 638]: the IC50 with GP2d cells (KRAS G12D) (GP2d) was less than 100 nM; in the test with GP2d cells (KRAS G12D) (GP2d, pERK HTRF, class symbols), less than 100 nM; in test [1] it was no more than 100 nM.

As for `CCN(c1nc(OC[C@@]23CCCN2C[C@H](F)C3)nc2c(F)c(-c3ccc(F)c4sc(N)c(C#N)c34)c(C(F)(F)F)cc12)[C@H]1CCN(C(=O)N2CCN(C(C)=O)CC2)C1` (atropisomer, axis not shown) [Compound 619], the IC50 was less than 100 nM in the test with GP2d cells (KRAS G12D) (GP2d); less than 100 nM with GP2d cells (KRAS G12D) (GP2d, pERK HTRF, class symbols); 100 to 1000 nM in test [1].

Take `CCN(c1nc(OC[C@@]23CCCN2C[C@H](F)C3)nc2c(F)c(-c3ccc(F)c4sc(N)c(C#N)c34)c(Cl)cc12)[C@@H]1CCN(C(=O)C2CC2)[C@@H]1C` [Compound 337]: in the test with GP2d cells (KRAS G12D) (GP2d, pERK HTRF), the IC50 was less than 100 nM.

Consider `N#Cc1c(N)sc2c(F)ccc(-c3c(C(F)(F)F)cc4c(N5CCNS(=O)(=O)CC5)nc(OC[C@@]56CCCN5C[C@H](F)C6)nc4c3F)c12` [Compound 245], for which the IC50 was less than 100 nM with GP2d cells (KRAS G12D) (GP2d); less than 100 nM with GP2d cells (KRAS G12D) (GP2d, pERK HTRF); 100 to 1000 nM in test [1].

As for `CCC(=O)N1CC[C@@H](N(CC)c2nc(OC[C@@]34CCCN3C[C@H](F)C4)nc3c(F)c(-c4ccc(F)c5sc(N)c(C#N)c45)c(C(F)(F)F)cc23)C1` [Compound 327], the IC50 was less than 100 nM with GP2d cells (KRAS G12D) (GP2d); less than 100 nM with GP2d cells (KRAS G12D) (GP2d, pERK HTRF); 100 to 1000 nM in test [1].

As to `CCC(=O)N1CC[C@@H](N(C)c2nc(OC[C@@]34CCCN3C[C@H](F)C4)nc3c(F)c(-c4ccc(F)c5sc(N)c(C#N)c45)c(C(F)(F)F)cc23)[C@H]1C` (atropisomer, axis not shown) [Compound 335], the IC50 was less than 100 nM with GP2d cells (KRAS G12D) (pERK HTRF), less than 100 nM in the test on GP2d cells (KRAS G12D) (GP2d) and 100 to 1000 nM in test [1].

With `CCN(c1nc(OC[C@@]23CCCN2C[C@H](F)C3)nc2c(F)c(-c3ccc(F)c4sc(N)c(C#N)c34)c(C(F)(F)F)cc12)[C@H]1CCN(C(=O)[C@H]2CCO2)C1` (atropisomer, axis not shown) [Compound 577], the IC50 in the test on GP2d cells (KRAS G12D) (GP2d) was less than 100 nM; in the test on GP2d cells (KRAS G12D) (GP2d, pERK HTRF, class symbols), less than 100 nM; in test [1] it was no more than 100 nM.

In the case of `CC(=O)N1CC[C@H](N(c2nc(OC[C@@]34CCCN3C[C@H](F)C4)nc3c(F)c(-c4ccc(F)c5sc(N)c(C#N)c45)c(C(F)(F)F)cc23)C2CC2)C1` (atropisomer, axis not shown) [Compound 608], the concentration for half-maximal inhibition (IC50) in the test with GP2d cells (KRAS G12D) (GP2d) is less than 100 nM; with GP2d cells (KRAS G12D) (GP2d, pERK HTRF, class symbols), less than 100 nM; in test [1], 100 to 1000 nM.

Take `N#Cc1c(N)sc2c(F)ccc(-c3c(C(F)(F)F)cc4c(N5CCCC[C@@H](O)C5)nc(OC[C@@]56CCCN5C[C@H](F)C6)nc4c3F)c12` [Compound 286]: the IC50 in the test with GP2d cells (KRAS G12D) (GP2d) was less than 100 nM; with GP2d cells (KRAS G12D) (GP2d, pERK HTRF), less than 100 nM; in test [1], 100 to 1000 nM.

In the test on GP2d cells (KRAS G12D) (GP2d, pERK HTRF), `CC(=O)N1CC[C@@H](N(C)c2nc(OC[C@@]34CCCN3C[C@H](F)C4)nc3c(F)c(-c4ccc(F)c5sc(N)c(C#N)c45)c(Cl)cc23)[C@H]1C` [Compound 398] registered an IC50 of less than 100 nM.

In the test with GP2d cells (KRAS G12D) (GP2d, pERK HTRF), `N#Cc1c(N)sc2c(F)ccc(-c3c(C(F)(F)F)cc4c(N5CCC[C@@H](O)C5)nc(OC[C@@]56CCCN5C[C@H](F)C6)nc4c3F)c12` [Compound 234] gave an IC50 of less than 100 nM.

As to `CCN(c1nc(OC[C@@]23CCCN2C[C@H](F)C3)nc2c(F)c(-c3ccc(F)c4sc(N)c(C#N)c34)c(C(F)(F)F)cc12)[C@H]1CC(=O)N(C2CC2)C1` (atropisomer, axis not shown) [Compound 615], the IC50 in the test with GP2d cells (KRAS G12D) (GP2d) was less than 100 nM; with GP2d cells (KRAS G12D) (GP2d, pERK HTRF, class symbols), less than 100 nM; in test [1], no more than 100 nM.

Consider `CC(=O)N1CC[C@H](N(CCF)c2nc(OC[C@@]34CCCN3C[C@H](F)C4)nc3c(F)c(-c4ccc(F)c5sc(N)c(C#N)c45)c(C(F)(F)F)cc23)C1` (atropisomer, axis not shown) [Compound 622], for which the IC50 in the test on GP2d cells (KRAS G12D) (GP2d) was less than 100 nM; in the test on GP2d cells (KRAS G12D) (GP2d, pERK HTRF, class symbols), less than 100 nM; in test [1], no more than 100 nM.

For the compound `CCN1C[C@@H](N(C)c2nc(OC[C@@]34CCCN3C[C@H](F)C4)nc3c(F)c(-c4ccc(F)c5sc(N)c(C#N)c45)c(C(F)(F)F)cc23)CC1=O` (atropisomer, axis not shown) [Compound 636], the IC50 with GP2d cells (KRAS G12D) (GP2d) was less than 100 nM; in the test with GP2d cells (KRAS G12D) (GP2d, pERK HTRF, class symbols) it was less than 100 nM; in test [1], 100 to 1000 nM.

Take `N#Cc1c(N)sc2c(F)ccc(-c3c(C(F)(F)F)cc4c(N(C5CC5)[C@H]5CCS(=O)(=O)C5)nc(OC[C@@]56CCCN5C[C@H](F)C6)nc4c3F)c12` [Compound 702]: the IC50 was less than 100 nM in the test on GP2d cells (KRAS G12D) (GP2d); less than 100 nM with GP2d cells (KRAS G12D) (GP2d, pERK HTRF, class symbols); 1000 to 10000 nM in test [1].

In the case of `C[C@@H]1[C@H](N(C)c2nc(OC[C@@]34CCCN3C[C@H](F)C4)nc3c(F)c(-c4ccc(F)c5sc(N)c(C#N)c45)c(C(F)(F)F)cc23)CCN1C(=O)C1CC1` [Compound 258], the IC50 in the test on GP2d cells (KRAS G12D) (GP2d, pERK HTRF) is less than 100 nM.

As for `CN(Cc1cccnc1N)c1nc(OC[C@@]23CCCN2C[C@H](F)C3)nc2c(F)c(-c3ccc(F)c4sc(N)c(C#N)c34)c(C(F)(F)F)cc12` [Compound 390], the IC50 in the test on GP2d cells (KRAS G12D) (GP2d, pERK HTRF) was less than 100 nM.

In turn, `CCN(c1nc(OC[C@@]23CCCN2C[C@H](F)C3)nc2c(F)c(-c3ccc(F)c4sc(N)c(C#N)c34)c(C(F)(F)F)cc12)[C@H]1C[C@H](C)N(C(C)=O)C1` [Compound 463] came in with an IC50 in the test with GP2d cells (KRAS G12D) (GP2d, pERK HTRF) of less than 100 nM.
